Results: patent US20190185544A1, “COMPOSITIONS AND METHODS OF MODULATING ABETA PROTEIN” (University of South Florida, priority 2016, published 2019)
Entries after “also recorded” stand apart in the source; their conditions may differ. Residues, ends and D or L forms follow the SMILES beside them.

What was measured:
CHO/APPwt cells [1] = assay: Aβ production in CHO/APPwt cells, treatment alone (Aβ1-40, 42 ELISA, 82E1 WB); format: cell-based, Chinese hamster; conditions: for Aβ production (Aβ1-40, 42): serum-free medium, 2 h (ELISA) or 16 h (WB)
Experimental: Chinese hamster ovary (CHO) cells overexpressing human wild-type amyloid precursor protein (APPwt) (CHO/APPwt cells) were cultured in 96-well plate at about 2×10^4/well in Dulbecco's modified Eagle's medium (DMEM) with 10% fetal bovine serum (FBS), 1 mM sodium pyruvate and 100 U/mL of penicillin/streptomycin for 18 hours.
CHO/APPwt cells were cultured in 96-well plate (about 2×10^4/well) in serum-free medium and treated with ApoE LDLR, FlagApoE LDLR (SEQ ID NO.: 1 with an N-terminal FLAG tag), BiotinApo LDLR (SEQ ID NO.: 1 with an N-terminal Biotin) and 3 lysinesApoE LDLR (3KApoE LDLR (SEQ ID NO.: 2)) at indicated doses for about 2 hours.
The conditioned media and cell lysates were prepared, and subjected to Aβ ELISA and protein assay.
CHO cells overexpressing human wild-type APP (CHO/APPwt) cells were cultured in 96-well plate at 2×10^4/well in Dulbecco's modified Eagle's medium (DMEM) with 10% fetal bovine serum (FBS), 1 mM sodium pyruvate and 100 U/mL of penicillin/streptomycin for 18 hours. […] 82E1 WB analyses as shown below the Aβ ELISA result histograms. The Aβ ELISA results are representative of three independent experiments with each condition triplicated and presented as mean±SD.
(residues 133-152, SEQ ID NO: 1)] as indicated for 2 and 16 hours (h). The conditioned media and cell lysates were analyzed by Aβ1-40, 42 ELISA (FIG. 10A), 82E1 WB analysis (FIG. 10B) and protein assay, respectively. In addition, (FIG. 10C) CHO/APPwt cells were cultured in 96-well plate (2×10^4/well) in serum-free DMEM and treated with FlagApoE-LBDP, BiotinApoE-LBDP and 3 lysineApoE-LBDP (3KApoE-LBDP) in comparing to ApoE-LBDP at indicated doses for 2 hours (h). […] (SEQ ID NO: 2); […]-[…] (SEQ ID NO: 10); Biotin-[…] (SEQ ID NO: 1 with an N-Terminal Biotin).
CHO cells engineered to express human wild-type APP (CHO/APPwt) or Swedish mutant APP (CHO/APPswe) were obtained. These cells were cultured in 96 or 24 well plates at 4×10^4 or 2×10^5 cells/well, respectively, in Dulbecco's modified Eagle's medium (DMEM) with 10% fetal bovine serum, 1 mM sodium pyruvate and 100 U/mL of penicillin/streptomycin (Invitrogen, Thermo Fisher Scientific). In addition, murine N2a cells transfected with APPwt (N2a/APPwt were obtained), SH-SY5Y cells transfected with APPswe and wild-type SH-SY5Y cells (ATCC, Manassas, Va.) were cultured as previously described^42. Primary hN2TM human neurons (Neuromics, Edina, Minn.) were cultured in hN2TM human neuron culture media and primary HCN2 human neurons (ATCC) were cultured in DMEM with 4 mM L-glutamine adjusted to contain 1.5 g/L sodium bicarbonate, 4.5 g/L glucose, fetal bovine serum (10%).
(§1) Aβ1-40, 42 and sAPPα from cell and brain homogenates were detected by Aβ1-40, 42 and sAPPα ELISA kits (IBL-America), strictly following the manufacturer's instructions^43,44.
(§2) WB analyses were performed as previously described^43,44. Briefly, 10% bicine/tris gel containing 8 M urea was used for separation of Aβ1-40, 42 species from brain homogenates or CHO cell conditioned media or lysates, followed by transfer to 0.2 μm pore-size nitrocellulose membrane (Bio-Rad, Hercules, Calif.). The membrane was boiled in PBS for 3 to 5 min before blocking to enhance sensitivity and then incubated with 82E1. For all other proteins detected by WB, 10% tris-SDS gels were used. Densitometry analysis was performed as previously described using a FluorS Multiimager with Quantity One™ software 43.

CHO/APPwt cells [2] = assay: Inhibition of apoE-/lipoprotein-induced Aβ production in CHO/APPwt cells (Aβ ELISA); format: cell-based, Chinese hamster
Experimental: CHO/APPwt cells were treated with apoE LDLR binding domain peptide (aa 133-152, ApoEp), FlagApoEp, BiotinApoEp, 3K (lysine) ApoEp, 3D (aspartate) ApoEp or scrambled peptide at 0 to 25 μM, followed after 2 h by analysis of Aβ levels in conditioned media by ELISA (Aβ ELISA, FIGS. 19A and 19C) and after 16 h by analysis of Aβ in cell lysates by Western blot using 82E1 antibody (Aβ WB, FIG. 19B). […] Pre-incubating with HDL has been previously reported to lipidate apoE. Hu astro med was obtained from human astrocytes (CCF-STTG1/ATCC® CRL-1718™) as described previously. […]
CHO cells were also transfected with pCMV6 APP695 or pCMV6 E1 depleted APP695, yielding cells expressing wild type APP695 (CHO/APPwt) or truncated APP695 lacking the N-terminal E1 region (CHO/APPdE1). […] Diagram indicates important domains identified in APP, including N-terminal E1 region (top panel), and APPwt and APPdE1 proteins in cell lysates and conditioned media derived from the transfected CHO cells as determined by WB using 6E10 (middle panels). […] Asterisk indicates P<0.05 compared with the corresponding absence of 22C11, 6H3B5 or 6KApoEp, or with corresponding CHO/APPwt cells, as determined by one-way ANOVA. […]
as §1

CHO/APPwt cells [3] = assay: Total cell associated cholesterol in CHO/APPwt cells; format: cell-based, Chinese hamster; conditions: 6KApoEp 0, 5 and 10 μM overnight
Experimental: (§3) Total cell associated cholesterol levels are represented as mean±s.d. (μg/mg of total intracellular protein) from three independent experiments. In addition, total plasma cholesterol levels in 3×Tg-AD mice treated with ApoEp (n=6) and 5×FAD mice treated with 6KApoEp (n=10) or PBS (Ctrl, n=10), as described in FIGS. 25A-26G, and in associated wild-type mice (WT) were analyzed by flourometric cholesterol quantitation kit (FIG. 31B). LDLR (FIG. 31C, top panel) and ApoE (middle panel) expression levels in brain homogenates were also analyzed by WB. […] (*P<0.05) and P>0.0.5, non-significant compared to control treatment.
CHO/APPwt cells were cultured overnight in 6-well plates at 2×10^6 cells/well in serum free DMEM, followed by washing 3 times with ice-cold PBS, lysis by sonication in chloroform:isopropanol:IGEPAL CA-630 (7:11:0.1) and centrifugation. The organic phase was transferred to a new tube, air dried at 50° C. to remove chloroform and diluted 10-fold in cholesterol assay buffer for cholesterol determination by flourometric cholesterol quantitation kit according to manufacturer's instructions (MilliporeSigma).

[4] = Plasma cholesterol and brain LDLR and ApoE expression in treated 3×Tg-AD and 5×FAD mice; format: in vivo, mouse; conditions: 5×FAD mice treated with 6KApoEp
Experimental: as §3

[5] = target: T1, human recombinant sAPPβ (rsAPPβ, without Aβ domain) (human, UniProt P05067 18-671, limits assumed); assay: in vitro incubation 1 h at 37 °C, IP with 6H3B5, WB
T1 construct: domain: sAPPβ (without Aβ domain); Bought protein

[6] = target: T2, human recombinant sAPPα (rsAPPα) (human, UniProt P05067 18-687, limits assumed); assay: as above
T2 construct: domain: sAPPα; also called human sAPPα protein

[7] = target: T3, CHO/APPwt cell conditioned medium-derived sAPPα (cmsAPPα) (human, UniProt P05067 18-687, limits assumed); assay: as above
T3 construct: domain: sAPPα

[8] = target: T4, human wild-type amyloid precursor protein (APPwt) expressed in CHO/APPwt cells (human, UniProt P05067 18-770); assay: CHO/APPwt cells treated 2 h; IP of cell lysates with 6H3B5 or pN-APP and WB; immunofluorescence
T4 construct: whole, on cells; Full-length APP in cell lysates or on fixed CHO/APPwt cells; also called full-length APP; f-APP
Experimental: as §2, with “described^{43,44}.” for “described^43,44.”, “43. Immunoprecipitation (IP) was performed by first incubating conditioned media or cell lysates with appropriate antibodies and Protein-A/G Mag Sepharose beads (GE Healthcare Life Sciences, Pittsburgh, Pa.) overnight with gentle rocking at 4° C., followed by three washes with binding buffer (50 mM tris, 150 mM NaCl, pH 7.5) and analysis by WB.” for “43.”

[9] = target: T5, total secreted APP (t-sAPP) in CHO/APPwt conditioned media (human, UniProt P05067 18-687, limits assumed); assay: CHO/APPwt cells treated 2 h; IP of conditioned media with 6H3B5 or pN-APP and WB
T5 construct: domain: total secreted APP (t-sAPP); Mixture of secreted APP ectodomain forms
Experimental: as §2, with “described^{43,44}.” for “described^43,44.”, “43. Immunoprecipitation (IP) was performed by first incubating conditioned media or cell lysates with appropriate antibodies and Protein-A/G Mag Sepharose beads (GE Healthcare Life Sciences, Pittsburgh, Pa.) overnight with gentle rocking at 4° C., followed by three washes with binding buffer (50 mM tris, 150 mM NaCl, pH 7.5) and analysis by WB.” for “43.”

[10] = target: T4, human wild-type amyloid precursor …; assay: cell-based or functional assay

T4 sequence (P05067 18-770): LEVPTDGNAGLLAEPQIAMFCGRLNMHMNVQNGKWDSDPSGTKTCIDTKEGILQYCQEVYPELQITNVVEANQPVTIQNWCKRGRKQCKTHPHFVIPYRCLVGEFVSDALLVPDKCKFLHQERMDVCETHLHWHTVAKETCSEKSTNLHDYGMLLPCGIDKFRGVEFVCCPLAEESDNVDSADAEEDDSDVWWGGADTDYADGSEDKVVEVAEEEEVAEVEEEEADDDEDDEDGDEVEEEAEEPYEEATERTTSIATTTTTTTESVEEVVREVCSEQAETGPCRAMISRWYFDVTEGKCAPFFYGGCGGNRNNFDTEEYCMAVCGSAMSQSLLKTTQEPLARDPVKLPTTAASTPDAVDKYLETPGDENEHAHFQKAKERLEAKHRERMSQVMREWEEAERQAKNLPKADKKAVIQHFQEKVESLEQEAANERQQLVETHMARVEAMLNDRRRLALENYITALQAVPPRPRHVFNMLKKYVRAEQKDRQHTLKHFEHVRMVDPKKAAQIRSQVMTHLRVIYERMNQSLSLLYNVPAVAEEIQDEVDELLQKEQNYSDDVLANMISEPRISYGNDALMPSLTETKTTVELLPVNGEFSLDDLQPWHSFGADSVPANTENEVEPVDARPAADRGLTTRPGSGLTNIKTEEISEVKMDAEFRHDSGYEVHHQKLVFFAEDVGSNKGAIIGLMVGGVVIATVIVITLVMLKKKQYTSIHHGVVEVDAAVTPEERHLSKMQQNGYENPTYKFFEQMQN
T1 sequence (P05067 18-671 limits assumed): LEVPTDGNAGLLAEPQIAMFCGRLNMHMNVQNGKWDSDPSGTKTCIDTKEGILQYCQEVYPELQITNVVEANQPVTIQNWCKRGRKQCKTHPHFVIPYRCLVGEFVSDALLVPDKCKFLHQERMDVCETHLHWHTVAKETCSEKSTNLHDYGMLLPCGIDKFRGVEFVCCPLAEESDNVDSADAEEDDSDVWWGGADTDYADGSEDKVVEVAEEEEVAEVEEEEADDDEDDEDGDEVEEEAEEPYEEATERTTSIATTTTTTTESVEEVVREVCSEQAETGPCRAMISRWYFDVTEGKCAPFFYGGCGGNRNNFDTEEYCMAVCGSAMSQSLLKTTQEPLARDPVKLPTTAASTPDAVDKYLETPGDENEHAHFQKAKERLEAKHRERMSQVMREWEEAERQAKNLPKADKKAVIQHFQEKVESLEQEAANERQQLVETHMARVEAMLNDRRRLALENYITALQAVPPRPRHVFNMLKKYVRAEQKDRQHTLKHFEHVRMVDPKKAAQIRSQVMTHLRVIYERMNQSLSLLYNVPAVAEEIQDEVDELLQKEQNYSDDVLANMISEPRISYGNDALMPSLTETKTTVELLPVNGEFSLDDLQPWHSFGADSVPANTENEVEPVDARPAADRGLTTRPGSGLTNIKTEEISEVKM
T3 sequence (P05067 18-687 limits assumed): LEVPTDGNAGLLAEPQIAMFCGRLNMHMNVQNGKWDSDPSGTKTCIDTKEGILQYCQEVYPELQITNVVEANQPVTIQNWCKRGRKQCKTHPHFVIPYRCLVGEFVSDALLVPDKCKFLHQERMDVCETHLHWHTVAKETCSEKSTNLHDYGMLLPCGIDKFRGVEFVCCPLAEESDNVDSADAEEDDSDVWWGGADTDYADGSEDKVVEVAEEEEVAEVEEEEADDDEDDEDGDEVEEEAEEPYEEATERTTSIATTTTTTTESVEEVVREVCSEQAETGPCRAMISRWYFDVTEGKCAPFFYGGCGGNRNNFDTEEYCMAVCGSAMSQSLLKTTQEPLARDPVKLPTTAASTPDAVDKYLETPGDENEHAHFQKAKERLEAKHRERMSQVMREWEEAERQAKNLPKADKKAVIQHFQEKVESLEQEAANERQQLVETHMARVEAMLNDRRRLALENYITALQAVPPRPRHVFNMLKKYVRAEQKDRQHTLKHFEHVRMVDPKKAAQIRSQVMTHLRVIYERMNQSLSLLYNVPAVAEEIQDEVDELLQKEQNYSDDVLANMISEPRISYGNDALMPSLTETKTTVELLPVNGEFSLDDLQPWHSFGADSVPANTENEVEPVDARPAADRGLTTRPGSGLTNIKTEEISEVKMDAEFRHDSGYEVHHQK
T2 sequence (P05067 18-687 limits assumed): as above
T5 sequence (P05067 18-687 limits assumed): as above

In the case of “DYKDDDDK-LRVRLASHLRKLRKRLLRDA (DYKDDDDKLRVRLASHLRKLRKRLLRDA; N-terminal FLAG ApoE recombinant polypeptide) [FlagApoEp, ApoEp modified by N-terminal addition of Flag-Tag]”, the “Aβ production (Aβ1-40, 42)” value (CHO/APPwt cells [1]) is reported as “greatly enhanced the efficacy of ApoEp to increase Aβ1-40, 42 levels”.

For “KKKLRVRLASHLRKLRKRLLRDA (polypeptide configured to modulate binding of a protein the an ApoE receptor) [3KApoEp, ApoEp with 3 N-terminal lysines]”, the “basal and apoE4-induced Aβ production” value (CHO/APPwt cells [2]; peptide 10 μM for 15 min, then with or without hu rec ApoE4 10 μg/mL for 2 hours) was “moderately”, the “Aβ generation induced by human plasma ApoE3, human recombinant ApoE3 and ApoE4, human plasma LDL and ApoB100” value (CHO/APPwt cells [2]; pre-treatment at about 10 μM, then inducer for about 2 hours) was “Markedly Inhibits Aβ Generation” and the “Aβ production (Aβ1-40, 42)” value (CHO/APPwt cells [1]) was “terminated this amyloidogenic effect”.

For `CC(C)C[C@H](NC(=O)[C@H](CCCNC(=N)N)NC(=O)[C@@H](NC(=O)[C@H](CCCNC(=N)N)NC(=O)[C@H](CC(C)C)NC(=O)[C@H](CCCCN)NC(=O)[C@H](CCCCN)NC(=O)[C@H](CCCCN)NC(=O)[C@H](CCCCN)NC(=O)[C@H](CCCCN)NC(=O)[C@@H](N)CCCCN)C(C)C)C(=O)N[C@@H](C)C(=O)N[C@@H](CO)C(=O)N[C@@H](Cc1c[nH]cn1)C(=O)N[C@@H](CC(C)C)C(=O)N[C@@H](CCCNC(=N)N)C(=O)N[C@@H](CCCCN)C(=O)N[C@@H](CC(C)C)C(=O)N[C@@H](CCCNC(=N)N)C(=O)N[C@@H](CCCCN)C(=O)N[C@@H](CCCNC(=N)N)C(=O)N[C@@H](CC(C)C)C(=O)N[C@@H](CC(C)C)C(=O)N[C@@H](CCCNC(=N)N)C(=O)N[C@@H](CC(=O)O)C(=O)N[C@@H](C)C(=O)O` [6KApoEp] (H-KKKKKKLRVRLASHLRKLRKRLLRDA-OH; N-terminus and C-terminus assumed), the cell-associated cholesterol levels (CHO/APPwt cells [3]) was “without altering cell-associated or plasma cholesterol levels” and the plasma cholesterol levels [4] was “without altering cell-associated or plasma cholesterol levels”.

In the case of “ApoB100: apolipoprotein B, human plasma (Athens Research & Technology)”, the sAPPα secretion (CHO/APPwt cells [1]) is reported as “decreased sAPPα secretion” and the “Aβ production (Aβ1-40, 42)” value (CHO/APPwt cells [1]) is reported as “increased Aβ1-40, 42 production; also recorded: markedly promote amyloid β protein (Aβ) production”.

B1: 6K (6 lysine peptide) (peptide)
peptide: KKKKKK
notes: Control peptide of six lysines; also called 6K lysine
B1: no binding (tested: 100 nM) [5]; no binding (tested: 100 nM) [6]; no binding (tested: 100 nM) [7]. B1: no binding (tested: 10 µM) [8]; no binding (tested: 10 µM) [9].

With KKKKKKLRVRLASHLRKLRKRLLRDA [6KApoEp (ApoE LDLR binding domain peptide with 6 N-terminal lysines)] the “apoE4-induced Aβ production in CHO/APPwt cells (Aβ ELISA and WB), IC50” value [10] was 320 to 630 nM.
